For the assay, the target named is T1, human Npt2a (Homo sapiens, UniProt Q06495).
T1 construct: expressed in transfected cells
T1 sequence (Q06495 1-639): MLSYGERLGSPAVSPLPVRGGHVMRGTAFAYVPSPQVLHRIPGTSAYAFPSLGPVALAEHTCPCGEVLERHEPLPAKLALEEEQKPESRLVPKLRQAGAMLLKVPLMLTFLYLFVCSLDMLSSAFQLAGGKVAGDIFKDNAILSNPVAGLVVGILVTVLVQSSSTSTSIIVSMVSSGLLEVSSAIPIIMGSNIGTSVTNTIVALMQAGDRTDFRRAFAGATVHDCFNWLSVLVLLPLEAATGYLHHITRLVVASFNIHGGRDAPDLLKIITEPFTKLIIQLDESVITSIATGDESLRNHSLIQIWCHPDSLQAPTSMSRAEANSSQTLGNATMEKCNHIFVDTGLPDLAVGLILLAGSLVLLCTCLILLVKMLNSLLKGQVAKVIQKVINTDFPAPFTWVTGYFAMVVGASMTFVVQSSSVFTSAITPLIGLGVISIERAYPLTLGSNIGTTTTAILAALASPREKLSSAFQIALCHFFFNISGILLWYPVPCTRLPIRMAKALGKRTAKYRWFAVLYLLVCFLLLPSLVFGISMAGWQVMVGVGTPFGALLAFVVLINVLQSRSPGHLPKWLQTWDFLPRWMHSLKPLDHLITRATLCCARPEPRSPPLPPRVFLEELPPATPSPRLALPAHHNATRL
Nature of the assay: Npt2a activity cell based assay, membrane potential dye, CHO T-REx hNpt2a cells. To be noted: doxycycline-induced, depolarization by sodium phosphate influx, average or median values if tested more than once. In outline:
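Cells were doxycycline-induced CHO T-REx hNpt2a, dye-loaded and pretreated 5 min at RT with 1 nM–50 μM compound in Na-free pH 7.4 buffer. IC50 was fit to the post/pre-trigger fluorescence ratio.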
By IC50 is commonly meant the midpoint of a concentration-inhibition curve. Low readings indicate inhibition by little substance, high ones a need for much substance. Consider `CCOC(=O)c1c(C)nn(-c2cc(Nc3c(CC)c(-c4ccc(C#N)cc4)nn3CC3CC3)ncn2)c1C` [Example 156, ethyl 1-(6-{[3-(4-cyanophenyl)-1-(cyclopropylmethyl)-4-ethyl-1H-pyrazol-5-yl]amino}pyrimidin-4-yl)-3,5-dimethyl-1H-pyrazole-4-carboxylate], for which inhibition was half-maximal at 0.002 µM (IC50). This lies in the single-digit nanomolar range. Next, `CCc1c(-c2ccc(C#N)cc2)nn(CC2CC2)c1Nc1cc(-n2nc(C)c(Cl)c2C)ncn1` [Example 157, 4-[5-{[6-(4-chloro-3,5-dimethyl-1H-pyrazol-1-yl)pyrimidin-4-yl]amino}-1-(cyclopropylmethyl)-4-ethyl-1H-pyrazol-3-yl]benzonitrile]: 0.006 µM. Next, `CCOC(=O)c1c(C)nn(-c2cc(Nc3c(Cl)c(-c4ccc(F)cc4)nn3CC3CC3)ncn2)c1C` [Example 158, ethyl 1-(6-{[4-chloro-1-(cyclopropylmethyl)-3-(4-fluorophenyl)-1H-pyrazol-5-yl]amino}pyrimidin-4-yl)-3,5-dimethyl-1H-pyrazole-4-carboxylate]: 0.004 µM; `Cc1nn(-c2cc(Nc3c(C)c(-c4ccc(F)cc4)nn3CC3CC3)ncn2)c(C)c1C(C)(C)O` [Example 159, 2-[1-(6-{[1-(cyclopropylmethyl)-3-(4-fluorophenyl)-4-methyl-1H-pyrazol-5-yl]amino}pyrimidin-4-yl)-3,5-dimethyl-1H-pyrazol-4-yl]propan-2-ol]: 0.008 µM; `Cc1nn(-c2cc(Nc3nn(CC4CC4)c(-c4ccc(F)cc4)c3Cl)ncn2)c(C)c1C(C)(C)O` [Example 160, 2-[1-(6-{[4-chloro-1-(cyclopropylmethyl)-5-(4-fluorophenyl)-1H-pyrazol-3-yl]amino}pyrimidin-4-yl)-3,5-dimethyl-1H-pyrazol-4-yl]propan-2-ol]: 1.11 µM. Next, `CCc1c(-c2ccc(F)cc2)nn(CC(F)F)c1Nc1cc(-n2nc(C)cc2C)ncn1` [Example 162, N-[1-(2,2-difluoroethyl)-4-ethyl-3-(4-fluorophenyl)-1H-pyrazol-5-yl]-6-(3,5-dimethyl-1H-pyrazol-1-yl)pyrimidin-4-amine]: 0.097 µM. `CCc1c(-c2ccc(F)cc2)nn(CC(F)F)c1Nc1cc(-n2nc(C)c(Cl)c2C)ncn1` [Example 163, 6-(4-chloro-3,5-dimethyl-1H-pyrazol-1-yl)-N-[1-(2,2-difluoroethyl)-4-ethyl-3-(4-fluorophenyl)-1H-pyrazol-5-yl]pyrimidin-4-amine]: 0.071 µM corresponded to half-maximal inhibition (IC50). Take `CCc1c(-c2ccc(C#N)cc2)nn(CC2CC2)c1Nc1cc(-n2nc(C)c(Cl)c2C(F)F)ncn1` [Example 164, 4-[5-({6-[4-chloro-5-(difluoromethyl)-3-methyl-1H-pyrazol-1-yl]pyrimidin-4-yl}amino)-1-(cyclopropylmethyl)-4-ethyl-1H-pyrazol-3-yl]benzonitrile]: the IC50 came to 0.011 µM.

Take `Cc1nn(-c2cc(Nc3c(C)c(-c4ccc(C#N)cc4)nn3CC3CC3)ncn2)c(C)c1C(C)(C)O` [Example 165, 4-[1-(cyclopropylmethyl)-5-({6-[4-(2-hydroxypropan-2-yl)-3,5-dimethyl-1H-pyrazol-1-yl]pyrimidin-4-yl}amino)-4-methyl-1H-pyrazol-3-yl]benzonitrile]: the IC50 was 0.003 µM. Under `CCc1c(Nc2cc(-n3nc(C)c(C(=O)OC(C)(C)C)c3C(F)F)ncn2)nn(C)c1-c1ccc(F)cc1` [Example 166, tert-butyl 5-(difluoromethyl)-1-(6-{[4-ethyl-5-(4-fluorophenyl)-1-methyl-1H-pyrazol-3-yl]amino}pyrimidin-4-yl)-3-methyl-1H-pyrazole-4-carboxylate] stands 0.009 µM; under `CCc1c(Nc2cc(-n3nc4ncccc4c3C)ncn2)nn(C)c1-c1ccc(F)cc1` [Example 167, N-[4-ethyl-5-(4-fluorophenyl)-1-methyl-1H-pyrazol-3-yl]-6-(3-methyl-2H-pyrazolo[3,4-b]pyridin-2-yl)pyrimidin-4-amine], 0.55 µM; under `CCc1c(Nc2cc(-n3nc(C)c4ccncc43)ncn2)nn(C)c1-c1ccc(F)cc1` [Example 168, N-[4-ethyl-5-(4-fluorophenyl)-1-methyl-1H-pyrazol-3-yl]-6-(3-methyl-1H-pyrazolo[3,4-c]pyridin-1-yl)pyrimidin-4-amine], 0.015 µM. Next, `Cc1cc(C)n(-c2cc(Nc3nn(CC4CC4)c(-c4ccc(F)cc4)c3C)ncn2)n1` [Example 169, N-[1-(cyclopropylmethyl)-5-(4-fluorophenyl)-4-methyl-1H-pyrazol-3-yl]-6-(3,5-dimethyl-1H-pyrazol-1-yl)pyrimidin-4-amine]: 0.69 µM; `Cc1nn(-c2cc(Nc3nn(CC4CC4)c(-c4ccc(F)cc4)c3C)ncn2)c(C)c1Cl` [Example 170, 6-(4-chloro-3,5-dimethyl-1H-pyrazol-1-yl)-N-[1-(cyclopropylmethyl)-5-(4-fluorophenyl)-4-methyl-1H-pyrazol-3-yl]pyrimidin-4-amine]: 0.44 µM; `Cc1cc(C)n(-c2cc(Nc3c(C)c(-c4ccc(F)cc4)nn3CC3CC3)ncn2)n1` [Example 171, N-[1-(cyclopropylmethyl)-3-(4-fluorophenyl)-4-methyl-1H-pyrazol-5-yl]-6-(3,5-dimethyl-1H-pyrazol-1-yl)pyrimidin-4-amine]: 0.012 µM.

For `CCc1c(Nc2cc(-n3nc(C)c(Cl)c3C(F)F)ncn2)nn(CC(F)F)c1-c1ccc(F)cc1` [Example 172, 6-[4-chloro-5-(difluoromethyl)-3-methyl-1H-pyrazol-1-yl]-N-[1-(2,2-difluoroethyl)-4-ethyl-5-(4-fluorophenyl)-1H-pyrazol-3-yl]pyrimidin-4-amine], the IC50 was determined as 0.057 µM. The compound `CCc1c(Nc2cc(-n3nc(C)cc3C)ncn2)nn(CC(F)F)c1-c1ccc(F)cc1` [Example 173, N-[1-(2,2-difluoroethyl)-4-ethyl-5-(4-fluorophenyl)-1H-pyrazol-3-yl]-6-(3,5-dimethyl-1H-pyrazol-1-yl)pyrimidin-4-amine] gave an IC50 of 0.016 µM.

For the compound `CCc1c(Nc2cc(-n3nc(C)c(Cl)c3C)ncn2)nn(CC(F)F)c1-c1ccc(F)cc1` [Example 174, 6-(4-chloro-3,5-dimethyl-1H-pyrazol-1-yl)-N-[1-(2,2-difluoroethyl)-4-ethyl-5-(4-fluorophenyl)-1H-pyrazol-3-yl]pyrimidin-4-amine], the IC50 came to 0.033 µM.

`Cc1nn(-c2cc(Nc3c(C)c(-c4ccc(F)cc4)nn3CC3CC3)ncn2)c(C)c1Cl` [Example 175, 6-(4-chloro-3,5-dimethyl-1H-pyrazol-1-yl)-N-[1-(cyclopropylmethyl)-3-(4-fluorophenyl)-4-methyl-1H-pyrazol-5-yl]pyrimidin-4-amine] had an IC50 of 0.014 µM. For the compound `Cc1nn(-c2cc(Nc3c(C)c(-c4ccc(F)cc4)nn3CC3CC3)ncn2)c(C(F)F)c1Cl` [Example 176, 6-[4-chloro-5-(difluoromethyl)-3-methyl-1H-pyrazol-1-yl]-N-[1-(cyclopropylmethyl)-3-(4-fluorophenyl)-4-methyl-1H-pyrazol-5-yl]pyrimidin-4-amine], 0.013 µM corresponded to half-maximal inhibition (IC50). Regarding `CCOC(=O)c1c(C)nn(-c2cc(Nc3nn(CC(F)F)c(-c4ccc(F)cc4)c3CC)ncn2)c1C` [Example 177, ethyl 1-(6-{[1-(2,2-difluoroethyl)-4-ethyl-5-(4-fluorophenyl)-1H-pyrazol-3-yl]amino}pyrimidin-4-yl)-3,5-dimethyl-1H-pyrazole-4-carboxylate], the IC50 worked out at 0.041 µM. Against the preceding compound, the IC50 is about 3.2-fold higher.

The compound `CCOC(=O)c1c(Cl)c(C)nn1-c1cc(Nc2nn(C)c(-c3ccc(F)cc3)c2CC)ncn1` [Example 178, ethyl 4-chloro-1-(6-{[4-ethyl-5-(4-fluorophenyl)-1-methyl-1H-pyrazol-3-yl]amino}pyrimidin-4-yl)-3-methyl-1H-pyrazole-5-carboxylate] yielded an IC50 of 0.026 µM. Next, `CCc1c(-c2ccc(F)cc2)nn(CC(F)F)c1Nc1cc(-n2nc(C)c(Cl)c2C(F)F)ncn1` [Example 179, 6-[4-chloro-5-(difluoromethyl)-3-methyl-1H-pyrazol-1-yl]-N-[1-(2,2-difluoroethyl)-4-ethyl-3-(4-fluorophenyl)-1H-pyrazol-5-yl]pyrimidin-4-amine]: 0.17 µM; `CCOC(=O)c1c(C)nn(-c2cc(Nc3c(CC)c(-c4ccc(F)cc4)nn3CC(F)F)ncn2)c1C` [Example 180, ethyl 1-(6-{[1-(2,2-difluoroethyl)-4-ethyl-3-(4-fluorophenyl)-1H-pyrazol-5-yl]amino}pyrimidin-4-yl)-3,5-dimethyl-1H-pyrazole-4-carboxylate]: 0.047 µM; `CCc1c(Nc2cc(-n3nc(C)c(C(C)(C)O)c3C)ncn2)n[nH]c1-c1ccc(F)cc1` [Example 181, 2-[1-(6-{[4-ethyl-5-(4-fluorophenyl)-1H-pyrazol-3-yl]amino}pyrimidin-4-yl)-3,5-dimethyl-1H-pyrazol-4-yl]propan-2-ol]: 1.5 µM.

Regarding `CCc1c(-c2ccc(F)cc2)nn(CC2CCC2)c1Nc1cc(-n2nc(C)cc2C)ncn1` [Example 182, N-[1-(cyclobutylmethyl)-4-ethyl-3-(4-fluorophenyl)-1H-pyrazol-5-yl]-6-(3,5-dimethyl-1H-pyrazol-1-yl)pyrimidin-4-amine], the IC50 was determined as 0.106 µM.
